The structures appear in SMILES notation. “And” between values parts separate entries of the source, which are not always exact repeats. Identical values can stand only once. Toxic doses and inconclusive results are not listed.

In this test the test system is BDF1 mice, B16 melanoma ip, median survival T/C. The test is described as follows: NCI In Vivo Anticancer Drug Screen. Data for tumor model B16 Melanoma (intraperitoneal) in B6D2F1 (BDF1) mice. The settings on record: endpoint: median survival time, higher = longer survival. The method in brief:
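Compounds were tested in mice carrying transplantable tumors. Survival or tumor size was recorded, and each value is the treated-group measurement (T) divided by that of the vehicle-treated control group (C).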

Where [1] appears, read: dose: 25.0 mg/kg/injection, schedule: Q01DX009 (ip), vehicle: suspension in saline.
Where [2] appears, read: dose: 50.0 mg/kg/injection, schedule: Q01DX009 (ip), vehicle: suspension in saline.
Where [3] appears, read: dose: 100.0 mg/kg/injection, schedule: Q01DX009 (ip), vehicle: suspension in saline.
[4] abbreviates: dose: 200.0 mg/kg/injection, schedule: Q01DX009 (ip), vehicle: suspension in saline.
Setting [5] is: dose: 12.5 mg/kg/injection, schedule: Q01DX009 (ip), vehicle: saline with Tween-80.
The mark [6] stands for this setting: dose: 25.0 mg/kg/injection, schedule: Q01DX009 (ip), vehicle: saline with Tween-80.
Setting [7] is: dose: 100.0 mg/kg/injection, schedule: Q01DX009 (ip), vehicle: Klucel (hydroxypropylcellulose) (HPC).
The mark [8] stands for this setting: dose: 200.0 mg/kg/injection, schedule: Q01DX009 (ip), vehicle: Klucel (hydroxypropylcellulose) (HPC).
Setting [9] is: dose: 25.0 mg/kg/injection, schedule: Q01DX009 (ip), vehicle: Klucel (hydroxypropylcellulose) (HPC).
Setting [10] is: dose: 50.0 mg/kg/injection, schedule: Q01DX009 (ip), vehicle: Klucel (hydroxypropylcellulose) (HPC).
The mark [11] stands for this setting: dose: 12.5 mg/kg/injection, schedule: Q01DX009 (ip), vehicle: Klucel (hydroxypropylcellulose) (HPC).

As for `CC(C)Cc1ccc(C(=O)O)cc1`, the T/C (dose: 75.0 mg/kg/injection, schedule: Q04DX003 (ip), vehicle: Klucel (hydroxypropylcellulose) (HPC)) was 102 % of control; the T/C (dose: 150.0 mg/kg/injection, schedule: Q04DX003 (ip), vehicle: Klucel (hydroxypropylcellulose) (HPC)) was 105 % of control; the T/C (dose: 300.0 mg/kg/injection, schedule: Q04DX003 (ip), vehicle: Klucel (hydroxypropylcellulose) (HPC)) is 111 % of control.
Turning to `CC[C@@]1(O)C[C@H](OC2CC(N(C)C)C(OC3CC(O)C(OC4CCC(=O)C(C)O4)C(C)O3)C(C)O2)c2c(cc3c(c2O)C(=O)c2c(O)cccc2C3=O)[C@H]1C(=O)OC` (stereo partly specified), the T/C is 100 % of control and 106 % of control and 112 % of control (dose: 0.75 mg/kg/injection, schedule: Q01DX001 (ip), vehicle: water); 123 % of control (dose: 0.75 mg/kg/injection, schedule: Q01DX009 (ip), vehicle: Klucel (hydroxypropylcellulose) (HPC)); 105 % of control and 112 % of control and 120 % of control (dose: 1.5 mg/kg/injection, schedule: Q01DX001 (ip), vehicle: water); 103 % of control (dose: 1.56 mg/kg/injection, schedule: Q01DX001 (ip), vehicle: water); 95 % of control and 97 % of control (dose: 2.16 mg/kg/injection, schedule: Q01DX001 (ip), vehicle: water); 110 % of control and 124 % of control (dose: 3.0 mg/kg/injection, schedule: Q01DX001 (ip), vehicle: water). Moreover, the T/C (dose: 3.0 mg/kg/injection, schedule: Q01DX009 (ip), vehicle: saline) is 160 % of control; the T/C (dose: 3.13 mg/kg/injection, schedule: Q01DX001 (ip), vehicle: water) was 110 % of control; the T/C (dose: 3.6 mg/kg/injection, schedule: Q01DX001 (ip), vehicle: water) is 91 % of control and 101 % of control; the T/C (dose: 6.25 mg/kg/injection, schedule: Q01DX001 (ip), vehicle: water) is 124 % of control; the T/C (dose: 8.0 mg/kg/injection, schedule: Q01DX001 (ip), vehicle: water) is 106 % of control and 120 % of control; the T/C (dose: 10.0 mg/kg/injection, schedule: Q01DX001 (ip), vehicle: water) is 100 % of control. The T/C is 110 % of control and 124 % of control (dose: 12.0 mg/kg/injection, schedule: Q01DX001 (ip), vehicle: water); 114 % of control and 121 % of control (dose: 12.5 mg/kg/injection, schedule: Q01DX001 (ip), vehicle: water); 98 % of control (dose: 25.0 mg/kg/injection, schedule: Q01DX001 (ip), vehicle: water).
With `CC/C(=C(\c1ccccc1)c1ccc(OCCN(C)C)cc1)c1ccccc1`, the T/C reads like this: under setting [1], 97 % of control; under setting [2], 93 % of control; under setting [3], 91 % of control; under setting [4], 86 % of control.
For the compound `CC(Br)C(=O)NC(C)C(=O)O` (stereo unspecified), the T/C was 93 % of control under setting [5]; 89 % of control under setting [6]; 90 % of control (dose: 50.0 mg/kg/injection, schedule: Q01DX009 (ip), vehicle: saline with Tween-80).
With `CCOc1ccc(C2NC(=O)c3ccccc3N2)cc1` (stereo unspecified), the T/C is 105 % of control under setting [7]; 98 % of control under setting [8]; 94 % of control (dose: 400.0 mg/kg/injection, schedule: Q01DX009 (ip), vehicle: Klucel (hydroxypropylcellulose) (HPC)).
As to `COc1ccc(CC2C(=O)NC(C)C(=O)N(C)C3Cc4ccc(cc4)Oc4cc(ccc4O)CC(C(=O)NC(C)C(=O)NC(C)C(=O)N2C)N(C)C3=O)cc1` (stereo unspecified), the T/C (dose: 0.25 mg/kg/injection, schedule: Q01DX009 (ip), vehicle: saline with Tween-80) is 117 % of control; the T/C (dose: 0.5 mg/kg/injection, schedule: Q01DX009 (ip), vehicle: saline with Tween-80) was 122 % of control; the T/C (dose: 2.0 mg/kg/injection, schedule: Q01DX009 (ip), vehicle: saline with Tween-80) was 152 % of control; the T/C (dose: 4.0 mg/kg/injection, schedule: Q01DX009 (ip), vehicle: saline with Tween-80) was 175 % of control; the T/C (dose: 8.0 mg/kg/injection, schedule: Q01DX009 (ip), vehicle: saline with Tween-80) is 154 % of control.
Turning to `Nc1n[nH]c(=O)[nH]1`, the T/C was 107 % of control under setting [9], 98 % of control under setting [10], 109 % of control under setting [7] and 107 % of control under setting [8].
`CN1C(=O)C(=Cc2ccc(O)cc2)C(=O)N(C)C1=O`: the T/C by setting is: under setting [5], 101 % of control; under setting [6], 97 % of control.
Take `O=Cc1cc2c(cc1Cl)OCO2`: the T/C reads like this: (dose: 100.0 mg/kg/injection, schedule: Q01DX009 (ip), vehicle: saline with Tween-80) 107 % of control; (dose: 200.0 mg/kg/injection, schedule: Q01DX009 (ip), vehicle: saline with Tween-80) 101 % of control; (dose: 400.0 mg/kg/injection, schedule: Q01DX009 (ip), vehicle: saline with Tween-80) 99 % of control.
Regarding `C1=Cc2ccccc2/C1=C/c1ccc(/C=C2\C=Cc3ccccc32)cc1`, the T/C reads like this: (dose: 100.0 mg/kg/injection, schedule: Q04DX003 (ip), vehicle: Klucel (hydroxypropylcellulose) (HPC)) 98 % of control; (dose: 200.0 mg/kg/injection, schedule: Q04DX003 (ip), vehicle: Klucel (hydroxypropylcellulose) (HPC)) 102 % of control; (dose: 400.0 mg/kg/injection, schedule: Q04DX003 (ip), vehicle: Klucel (hydroxypropylcellulose) (HPC)) 92 % of control.
Consider `Oc1nc(/N=C2/N=c3ccc(Cl)cc3=N2)[nH]c1O`, for which the T/C under setting [11] is 86 % of control, the T/C under setting [9] was 93 % of control and the T/C under setting [10] is 86 % of control.
For the compound `c1ccc(C2c3ccccc3C(c3ccccc3)(c3ccccc3)c3ccccc32)cc1`, the T/C by setting is: under setting [11], 87 % of control; under setting [9], 101 % of control; under setting [10], 97 % of control; under setting [7], 86 % of control.
In the case of `CCCCC(=O)OCC(=O)[C@]1(O)Cc2c(O)c3c(c(O)c2[C@@H](OC2CC(NC(=O)C(F)(F)F)C(O)C(C)O2)C1)C(=O)c1c(OC)cccc1C3=O` (stereo partly specified), the T/C runs as follows: (dose: 7.78 mg/kg/injection, schedule: Q01DX004 (ip), vehicle: other) 106 % of control; (dose: 9.38 mg/kg/injection, schedule: Q01DX001 (ip), vehicle: clinical formulation) 111 % of control; (dose: 13.0 mg/kg/injection, schedule: Q01DX004 (ip), vehicle: other) 115 % of control; (dose: 21.6 mg/kg/injection, schedule: Q01DX004 (ip), vehicle: other) 122 % of control; (dose: 32.0 mg/kg/injection, schedule: Q01DX009 (ip), vehicle: distilled water + Tween-80) 180 % of control; (dose: 36.0 mg/kg/injection, schedule: Q01DX004 (ip), vehicle: other) 122 % of control. Moreover, the T/C reads like this: (dose: 64.0 mg/kg/injection, schedule: Q01DX009 (ip), vehicle: distilled water + Tween-80) 158 % of control; (dose: 75.0 mg/kg/injection, schedule: Q01DX001 (ip), vehicle: clinical formulation) 191 % of control; (dose: 128.0 mg/kg/injection, schedule: Q01DX009 (ip), vehicle: distilled water + Tween-80) 288 % of control; (dose: 150.0 mg/kg/injection, schedule: Q01DX001 (ip), vehicle: clinical formulation) 169 % of control and 205 % of control.
In the case of `CO[C@H](C)[C@@](O)(C(=O)OCC1=CCN2CCC[C@@H]12)C(C)C`, the T/C is, setting by setting: (dose: 10.0 mg/kg/injection, schedule: Q01DX009 (ip), vehicle: saline) 114 % of control; (dose: 20.0 mg/kg/injection, schedule: Q01DX009 (ip), vehicle: saline) 104 % of control; (dose: 40.0 mg/kg/injection, schedule: Q01DX009 (ip), vehicle: saline) 100 % of control; (dose: 80.0 mg/kg/injection, schedule: Q01DX009 (ip), vehicle: saline) 95 % of control.
Take `NC(CC(=O)O)CC(=O)O`: the T/C is, setting by setting: under setting [1], 91 % of control; under setting [2], 92 % of control; under setting [3], 103 % of control; under setting [4], 100 % of control; (dose: 400.0 mg/kg/injection, schedule: Q01DX009 (ip), vehicle: suspension in saline) 90 % of control.

The values above are taken from PubChem BioAssay AID192 (DTP/NCI, 2004).
